Data set [1] addresses T1, Human 5-lipoxygenase (Homo sapiens, UniProt P09917).
T1 construct: purchased Cayman 60402; host or cells: insect cells
T1 sequence (P09917 1-674): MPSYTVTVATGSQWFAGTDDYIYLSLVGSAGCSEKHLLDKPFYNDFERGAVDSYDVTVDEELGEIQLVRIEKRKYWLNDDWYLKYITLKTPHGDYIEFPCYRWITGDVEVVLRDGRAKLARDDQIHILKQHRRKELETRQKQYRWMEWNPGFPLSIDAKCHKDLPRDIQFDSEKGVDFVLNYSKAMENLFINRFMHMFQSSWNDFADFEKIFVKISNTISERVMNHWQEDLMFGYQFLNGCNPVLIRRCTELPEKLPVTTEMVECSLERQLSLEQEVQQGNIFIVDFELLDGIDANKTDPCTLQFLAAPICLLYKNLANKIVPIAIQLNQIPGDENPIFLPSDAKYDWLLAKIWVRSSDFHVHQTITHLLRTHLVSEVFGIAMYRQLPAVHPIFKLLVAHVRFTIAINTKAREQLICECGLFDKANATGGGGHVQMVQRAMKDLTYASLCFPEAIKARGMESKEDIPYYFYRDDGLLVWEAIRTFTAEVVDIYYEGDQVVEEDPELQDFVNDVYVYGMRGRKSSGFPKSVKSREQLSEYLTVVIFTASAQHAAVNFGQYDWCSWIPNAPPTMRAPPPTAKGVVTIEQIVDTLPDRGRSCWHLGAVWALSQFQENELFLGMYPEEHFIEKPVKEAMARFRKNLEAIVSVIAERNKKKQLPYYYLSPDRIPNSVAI
As to the kind of experiment: Activity of compounds against 5-LO enzyme (LTB4 measurement and/or fluorescence method). To be noted: for inhibition at 10 µM: 5-LO, single concentration of 10 uM in duplicate; for IC50: 6 or 11 point dose response in duplicate. The data set is classed as biochemical. In outline:
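Insect-cell human 5-LO preincubated 15 min at RT with compound (pH 7.4, 2 mM CaCl2, 0.1 mM ATP, 1% DMSO), then 3 uM arachidonic acid for 5 min at 37 °C; LTB4 quantified by EIA and/or LC/MS/MS. Alternatively, fluorescence of 5-HpETE via H2DCFDA, 100 uM ATP, 3 uM arachidonic acid, 5 min, RT; single 10 uM screen then 6- or 11-point IC50.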

`CCc1nc2ccc(Cl)cn2c1-c1nc(Cc2ccc(Oc3ccc(F)cc3)cc2)no1` [compound 289, 5-(6-Chloro-2-ethylimidazo[1,2-a]pyridin-3-yl)-3-(4-(4-fluorophenoxy)benzyl)-1,2,4-oxadiazole]: the melting point is 129.9 °C. In data set [1], this molecule displayed an inhibition at 10 µM of less than 40%.

In turn, `CCc1nc2cc(C(F)(F)F)ccn2c1C(=O)NCc1ccc(N2CCOCC2)cc1` [compound 290, 2-Ethyl-N-(4-morpholinobenzyl)-7-(trifluoromethyl)imidazo[1,2-a]pyridine-3-carboxamide] returned a melting point of 174.1 °C. For the same molecule, the inhibition at 10 µM in data set [1] was less than 40%.

Molecule `CCc1nc2ccc(Cl)cn2c1C(=O)NCc1ccc(N2CCC(C(N)=O)CC2)cc1` [compound 291, N-(4-(4-Carbamoylpiperidin-1-yl)benzyl)-6-chloro-2-ethylimidazo[1,2-a]pyridine-3-carboxamide] returned a melting point of 257.5 °C. In data set [1], this molecule gave an inhibition at 10 µM of less than 40%.

For `CCc1nc2cc(Cl)ccn2c1C(=O)NCc1ccc(N2CCC(C(N)=O)CC2)cc1` [compound 292, N-(4-(4-Carbamoylpiperidin-1-yl)benzyl)-7-chloro-2-ethylimidazo[1,2-a]pyridine-3-carboxamide], the melting point worked out at 244 °C. This molecule also yielded an inhibition at 10 µM in data set [1] of less than 40%.

For `CCc1nc2cc(Cl)ccn2c1C(=O)NCc1ccc(N2CCC(c3ccc(Cl)cc3)CC2)cc1` [compound 297, 7-Chloro-N-(4-(4-(4-chlorophenyl)piperidin-1-yl)benzyl)-2-ethylimidazo[1,2-a]pyridine-3-carboxamide], the melting point was 177 °C. The same molecule returned an inhibition at 10 µM in data set [1] of 40 to 69%.

`CCc1nc2ccc(Cl)cn2c1C(=O)NCc1ccc2oc(C3CCCCC3)nc2c1` [compound 298, 6-Chloro-N-((2-cyclohexylbenzo[d]oxazol-5-yl)methyl)-2-ethylimidazo[1,2-a]pyridine-3-carboxamide]: the melting point stood at 169.7 °C. In data set [1], this molecule registered an inhibition at 10 µM greater than 69% and an IC50 of 1 to 20 µM.

The molecule `CCc1nc2cc(Cl)ccn2c1C(=O)NCc1ccc2oc(C3CCCCC3)nc2c1` [compound 299, 7-Chloro-N-((2-cyclohexylbenzo[d]oxazol-5-yl)methyl)-2-ethylimidazo[1,2-a]pyridine-3-carboxamide] had a melting point of 163 °C. In data set [1], this molecule had an inhibition at 10 µM greater than 69% and an IC50 of less than 1 µM.

With `CCc1nc2ccc(Cl)cn2c1C(=O)NCc1ccc(N2CCOCC2)c(Cl)c1` [compound 302, 6-Chloro-N-(3-chloro-4-morpholinobenzyl)-2-ethylimidazo[1,2-a]pyridine-3-carboxamide], the melting point came out at 175.5 °C. In data set [1], this molecule returned an inhibition at 10 µM of less than 40%.

Regarding `CCc1nc2cc(Br)ccn2c1C(=O)NCc1ccc(N2CCN(c3ccc(F)cc3)CC2)cc1` [compound 304, 7-Bromo-2-ethyl-N-(4-(4-(4-fluorophenyl)piperazin-1-yl)benzyl)imidazo[1,2-a]pyridine-3-carboxamide], the melting point was found to be 214.6 °C. In data set [1], the inhibition at 10 µM was greater than 69% and the IC50 was in the range of 1 to 20 µM.

In turn, `CCc1nc2cc(-c3cccnc3)ccn2c1C(=O)NCc1ccc(N2CCOCC2)cc1` [compound 305, 2-Ethyl-N-(4-morpholinobenzyl)-7-(pyridin-3-yl)imidazo[1,2-a]pyridine-3-carboxamide] registered a melting point of 208.5 °C. Further, the inhibition at 10 µM in data set [1] is less than 40%.

The molecule `CCc1nc2ccc(Cl)cn2c1C(=O)NCc1ccc(N2CCC(O)(c3ccc(F)cc3)CC2)cc1` [compound 306, 6-Chloro-2-ethyl-N-(4-(4-(4-fluorophenyl)-4-hydroxypiperidin-1-yl)benzyl)imidazo[1,2-a]pyridine-3-carboxamide] returned a melting point of 173.5 °C. In data set [1], this molecule gave an inhibition at 10 µM of 40 to 69%.

As to `CCc1nc2ccc(Cl)cn2c1C(=O)NC1CCN(Cc2ccc(OC(F)(F)F)cc2)CC1` [compound 309, 6-Chloro-2-ethyl-N-(1-(4-(trifluoromethoxy)benzyl)piperidin-4-yl)imidazo[1,2-a]pyridine-3-carboxamide], the melting point lay within 157 to 158 °C. Moreover, in data set [1], the inhibition at 10 µM lay in the range of 40 to 69% and the IC50 lay within 1 to 20 µM.

`CCc1nc2c[n+]([O-])ccn2c1C(=O)NCc1ccc(-c2ccc(Cl)cc2)cc1` [compound 310, 3-(((4′-Chloro-[1,1′-biphenyl]-4-yl)methyl)carbamoyl)-2-ethylimidazo[1,2-a]pyrazine 7-oxide] registered a melting point of 238 °C. In data set [1], this molecule yielded an inhibition at 10 µM of 40 to 69% and an IC50 of 1 to 20 µM.

As to `CCc1nc2ccc(Cl)cn2c1C(=O)NCc1ccc(C2CCN(C(=O)Cc3ccc(F)cc3)CC2)cc1` [compound 327, 6-chloro-2-ethyl-N-(4-(1-(2-(4-fluorophenyl)acetyl)piperidin-4-yl)benzyl)imidazo[1,2-a]pyridine-3-carboxamide], the melting point is 216.2 to 220.7 °C. The inhibition at 10 µM in data set [1] is 40 to 69%.

As to `CCc1nc2ccc(Cl)cn2c1C(=O)NCc1cccc(N(C)Cc2ccc(OC(F)(F)F)cc2)c1` [compound 352, 6-chloro-2-ethyl-N-(3-(methyl(4-(trifluoromethoxy)benz)amino)benzyl)imidazo[1,2-a]pyridine-3-carboxamide], the melting point is > 142.3 °C (dec.). Besides, the inhibition at 10 µM in data set [1] was less than 40%.

In the case of `CCc1nc2ccc(Cl)cn2c1C(=O)NCc1cccc(OCc2ccc(OC(F)(F)F)cc2)c1` [compound 353, 6-chloro-2-ethyl-N-(3-((4-(trifluoromethoxy)benzyl)oxy)benzyl)imidazo[1,2-a]pyridine-3-carboxamide], the melting point was > 142.7 °C (dec.). Moreover, the inhibition at 10 µM in data set [1] was less than 40%.

In turn, `CCc1nc2ccc(Cl)cn2c1C(=O)NCc1cccc(N2CCC(c3ccc(OC(F)(F)F)cc3)CC2)c1` [compound 354, 6-chloro-2-ethyl-N-(3-(4-(4-(trifluoromethoxy)phenyl)piperidin-1-yl)benzyl)imidazo[1,2-a]pyridine-3-carboxamide] gave a melting point of 135.5 to 136.4 °C. In addition, the inhibition at 10 µM in data set [1] was less than 40%.

`CCc1nc2ccc(Cl)cn2c1C(=O)NCc1cccc(CC(=O)Nc2ccc(F)cc2)c1` [compound 355, 6-chloro-2-ethyl-N-(3-(2-((4-fluorophenyl)amino)-2-oxoethyl)benzyl)imidazo[1,2-a]pyridine-3-carboxamide]: the melting point was > 198.8 °C (dec.). Also, in data set [1], the inhibition at 10 µM was less than 40%.

On to `CCc1nc2ccc(Cl)cn2c1C(=O)NCc1cccc(N2CCN(c3ccc(OC(F)(F)F)cc3)CC2)c1` [compound 356, 6-chloro-2-ethyl-N-(3-(4-(4-(trifluoromethoxy)phenyl)piperazin-1-yl)benzyl)imidazo[1,2-a]pyridine-3-carboxamide], for which the melting point is > 168 °C (dec.). Moreover, in data set [1], the inhibition at 10 µM was 40 to 69%.

Molecule `CCc1nc2ccc(Cl)cn2c1C(=O)NCc1ccc(CC2CCOCC2)cc1` [compound 358, 6-chloro-2-ethyl-N-(4-((tetrahydro-2H-pyran-4-yl)methyl)benzyl)imidazo[1,2-a]pyridine-3-carboxamide] registered a melting point of 132.2 to 133 °C. Further, the inhibition at 10 µM in data set [1] is less than 40%.

With `CCc1nc2cc(Cl)ccn2c1C(=O)NCc1ccc(CC2CCOCC2)cc1` [compound 359, 7-chloro-2-ethyl-N-(4-((tetrahydro-2H-pyran-4-yl)methyl)benzyl)imidazo[1,2-a]pyridine-3-carboxamide], the melting point is > 125.9 °C (dec.). This molecule came in with an inhibition at 10 µM in data set [1] of less than 40%.

As for `CCc1nc2ccc(Cl)cn2c1C(=O)NCc1cccc(N2CCC(Oc3ccc(OC(F)(F)F)cc3)CC2)c1` [compound 360, 6-chloro-2-ethyl-N-(3-(4-(4-(trifluoromethoxy)phenoxy)piperidin-1-yl)benzyl)imidazo[1,2-a]pyridine-3-carboxamide], the melting point lay in the range of 126.3 to 127.2 °C. The inhibition at 10 µM in data set [1] lay within 40 to 69%.

As to `CCc1nc2ccc(Cl)cn2c1C(=O)NCc1cc2cc(Cl)ccc2s1` [compound 361, 6-chloro-N-((5-chlorobenzo[b]thiophen-2-yl)methyl)-2-ethylimidazo[1,2-a]pyridine-3-carboxamide], the melting point is greater than 220 °C. In data set [1], the inhibition at 10 µM was less than 40%.

Turning to `CCc1nc2ccccn2c1C(=O)NCc1ccc(C2CCOCC2)cc1` [compound 362, 2-ethyl-N-(4-(tetrahydro-2H-pyran-4-yl)benzyl)imidazo[1,2-a]pyridine-3-carboxamide], the melting point is > 133.7 °C (dec.). The molecule also registered an inhibition at 10 µM in data set [1] of less than 40%.
